According to patent publication US20170121322A1, “BET-PROTEIN INHIBITING 3,4-DIHYDROPYRIDO[2,3-B]PYRAZINONES WITH META-SUBSTITUTED AROMATIC AMINO- OR ETHER GROUPS” (Bayer Pharma Aktiengesellschaft, priority 2014, published 2017):

Legend:
[1] = biological target: T1, BRD4 bromo domain 2 [BRD4(2)] (Homo sapiens, UniProt O60885); assay: BRD4(2)/acetylated peptide H4 TR-FRET binding assay; settings: His6-BRD4(2) (aa 357-445) vs acetylated histone H4 peptide
T1 construct: N-terminally His6-tagged BRD4(2) (amino acids 357-445); made in house; host or cells: E. coli
Excerpt: To assess the BRD4(2) binding strength of the substances described in this application, the ability thereof to inhibit the interaction between BRD4(2) and acetylated histone H4 in a dose-dependent manner was quantified.
For this purpose, a time-resolved fluorescence resonance energy transfer (TR-FRET) assay was used, which measures the binding between N-terminally His6-tagged BRD4(2) (amino acids 357-445) and a synthetic acetylated histone H4 (Ac-H4) peptide with sequence SGRGK(Ac)GGK(Ac)GLGK(Ac)GGAK(Ac)RHRKVLRDNGSGSK-biotin. The recombinant BRD4(2) protein produced in-house according to Filippakopoulos et al., Cell, 2012, 149:214-231 was expressed in E. coli and purified by means of (Ni-NTA) affinity and (Sephadex G-75) size exclusion chromatography. The Ac-H4 peptide can be purchased, for example, from Biosyntan (Berlin, Germany).
In the assay, typically 11 different concentrations of each substance (0.1 nM, 0.33 nM, 1.1 nM, 3.8 nM, 13 nM, 44 nM, 0.15 μM, 0.51 μM, 1.7 μM, 5.9 μM and 20 μM) were analysed as duplicates on the same microtitre plate. For this purpose, 100-fold concentrated solutions in DMSO were prepared by serial dilutions (1:3.4) of a 2 mM stock solution into a clear, 384-well microtitre plate (Greiner Bio-One, Frickenhausen, Germany). From this, 50 nl were transferred into a black test plate (Greiner Bio-One, Frickenhausen, Germany). The test was started by the addition of 2 μl of a 2.5-fold concentrated BRD4(2) solution (final concentration typically 100 nM in the 5 μl of reaction volume) in aqueous assay buffer [50 mM HEPES pH 7.5, 50 mM sodium chloride (NaCl); 50 mM potassium fluoride (KF); 0.25 mM CHAPS and 0.05% serum albumin (BSA)] to the substances in the test plate. This was followed by a 10-minute incubation step at 22° C. for the pre-equilibration of putative complexes between BRD4(2) and the substances.
The mixture was then incubated in the dark at 22° C. for one hour and then at 4° C. for at least 3 hours and for no longer than overnight. The formation of BRD4(2)/Ac-H4 complexes was determined by the measurement of the resonance energy transfer from the streptavidin-Eu chelate to the anti-6His-XL665 antibody present in the reaction. For this purpose, the fluorescence emission was measured at 620 nm and 665 nm after excitation at 330-350 nm in a TR-FRET measuring instrument, for example a Rubystar or Pherastar (both from BMG Lab Technologies, Offenburg, Germany) or a Viewlux (Perkin-Elmer). The ratio of the emissions at 665 nm and at 622 nm was taken as an indicator of the amount of BRD4(2)/Ac-H4 complexes formed.
The data (ratios) obtained were normalized, with 0% inhibition corresponding to the mean from the measurements for a set of controls (typically 32 data points) in which all the reagents were present. In these, in place of test substances, 50 nl of DMSO (100%) were used. Inhibition of 100% corresponded to the mean from the measurements for a set of controls (typically 32 data points) in which all the reagents except BRD4(2) were present. The IC50 was determined by regression analysis based on a 4-parameter equation (minimum, maximum, IC50, Hill; Y=Max+(Min−Max)/(1+(X/IC50)Hill)).

MOLM-13 cells = assay: Cell proliferation assay MOLM-13, method 1 (alamarBlue); assay type: cell-based; settings: Homo sapiens, acute myeloid leukaemia cells, 4000 cells/well, 96-well, 96 hours
Description: (§1) In accordance with the invention, the ability of the substances to inhibit cell proliferation was determined. Cell viability was determined by means of the alamarBlue® reagent (Invitrogen) in a Victor X3 Multilabel Reader (Perkin Elmer). The excitation wavelength was 530 nm and the emission wavelength […].
The MOLM-13 cells (DSMZ, ACC 554) were seeded at a concentration of 4000 cells/well in 100 μl of growth medium (RPMI1640, 10% FCS) on 96-well microtitre plates (method 1).
(§2) After overnight incubation at 37° C., the fluorescence values (CI values) were determined. Then the plates were treated with various substance dilutions (1E-5 M, 3E-6 M, 1E-6 M, 3E-7 M, 1E-7 M, 3E-8 M, 1E-8 M) and incubated at 37° C. over 96 hours (MOLM-13, B16F10, CHL-1 cells) or 120 hours (MOLP-8 cells). Subsequently, the fluorescence values were determined (CO values). For the data analysis, the CI values were subtracted from the CO values and the results were compared between cells which had been treated with various dilutions of the substance or only with buffer solution. The IC50 values (substance concentration needed for 50% inhibition of cell proliferation) were calculated therefrom.
(§3) The substances were tested in the cell lines in Table 2, which represent the indications specified by way of example: […]

B16F10 cells = assay: Cell proliferation assay B16F10 (alamarBlue); assay type: cell-based; settings: Mus musculus, B16-F10, melanoma (BRAF wild-type) cells, 96 hours
Description: as §1
The B16F10 cells (ATCC, CRL-6475) were seeded at a concentration of 300-500 cells/well in 100 μl of growth medium (DMEM with phenol red, 10% FCS) on 96-well microtitre plates.
as §2, §3

SMILES	IC50 [1]	IC50 (MOLM-13 cells)	IC50 (B16F10 cells)
COc1ccc(S(=O)(=O)C2CCC2)cc1Nc1ccc2c(n1)N(C1CCOCC1)[C@H](C)C(=O)N2C [Example 35, (3R)-6-{[5-(Cyclobutylsulphonyl)-2-methoxyphenyl]amino}-1,3-dimethyl-4-(tetrahydro-2H-pyran-4-yl)-3,4-dihydropyrido[2,3-b]pyrazin-2(1H)-one]	51 nM	12 nM	16 nM
COc1ccc(S(=O)(=O)C(C)C)cc1Nc1ccc2c(n1)N(C(C)C)[C@H](C)C(=O)N2C [Example 16, (3R)-4-Isopropyl-6-{[5-(isopropylsulphonyl)-2-methoxyphenyl]amino}-1,3-dimethyl-3,4-dihydropyrido[2,3-b]pyrazin-2(1H)-one]	33 nM	184 nM	180 nM
CC(C)S(=O)(=O)c1ccc(OC(F)(F)F)c(Nc2ccc3c(n2)N(C2CCN(C)CC2)[C@H](C)C(=O)N3C)c1 [Example 20, (3R)-6-{[5-(Isopropylsulphonyl)-2-(trifluoromethoxy)phenyl]amino}-1,3-dimethyl-4-(1-methylpiperidin-4-yl)-3,4-dihydropyrido[2,3-b]pyrazin-2(1H)-one]	65 nM	19 nM	49 nM
COc1ccc(S(=O)(=O)C2CC2)cc1Nc1ccc2c(n1)N(C1CCOCC1)[C@H](C)C(=O)N2C [Example 8, (3R)-6-{[5-(Cyclopropylsulphonyl)-2-methoxyphenyl]amino}-1,3-dimethyl-4-(tetrahydro-2H-pyran-4-yl)-3,4-dihydropyrido[2,3-b]pyrazin-2(1H)-one]	49 nM	24 nM	37 nM
COc1ccc(S(=O)(=O)C(F)(F)F)cc1Nc1ccc2c(n1)N(C1CCOCC1)[C@H](C)C(=O)N2C [Example 39, (3R)-6-({2-Methoxy-5-[(trifluoromethyl)sulphonyl]phenyl}amino)-1,3-dimethyl-4-(tetrahydro-2H-pyran-4-yl)-3,4-dihydropyrido[2,3-b]pyrazin-2(1H)-one]	56 nM	137 nM	84 nM
Cc1cc(Nc2ccc3c(n2)N(C2CCOCC2)[C@H](C)C(=O)N3C)ccn1 [Example 42, (3R)-1,3-Dimethyl-6-[(2-methylpyridin-4-yl)amino]-4-(tetrahydro-2H-pyran-4-yl)-3,4-dihydropyrido[2,3-b]pyrazin-2(1H)-one]	180 nM	686 nM	1080 nM
CC(C)S(=O)(=O)c1cccc(Nc2ccc3c(n2)N(C2CCOCC2)[C@H](C)C(=O)N3C)c1 [Example 7, (3R)-6-{[3-(Isopropylsulphonyl)phenyl]amino}-1,3-dimethyl-4-(tetrahydro-2H-pyran-4-yl)-3,4-dihydropyrido[2,3-b]pyrazin-2(1H)-one]	44 nM	111 nM	104 nM
C[C@@H]1C(=O)N(C)c2ccc(Nc3cccc(S(C)(=O)=O)c3)nc2N1C1CCCCCC1 [Example 5, (3R)-4-Cycloheptyl-1,3-dimethyl-6-{[3-(methylsulphonyl)phenyl]amino}-3,4-dihydropyrido[2,3-b]pyrazin-2(1H)-one]	96 nM	651 nM	611 nM
C[C@@H]1C(=O)N(C)c2ccc(Nc3cccc(S(C)(=O)=O)c3)nc2N1C1CCOCC1 [Example 1, (3R)-1,3-Dimethyl-6-{[3-(methylsulphonyl)phenyl]amino}-4-(tetrahydro-2H-pyran-4-yl)-3,4-dihydropyrido[2,3-b]pyrazin-2(1H)-one]	121 nM	191 nM	285 nM
C[C@@H]1C(=O)N(C)c2ccc(Nc3cccc(S(C)(=O)=O)c3)nc2N1C1CCN(C)CC1 [Example 11, (3R)-1,3-Dimethyl-4-(1-methylpiperidin-4-yl)-6-{[3-(methylsulphonyl)phenyl]amino}-3,4-dihydropyrido[2,3-b]pyrazin-2(1H)-one]	75 nM	188 nM	445 nM

Further compounds by falling IC50 [1], results first:

IC50 [1]	IC50 (MOLM-13 cells)	IC50 (B16F10 cells)	SMILES
63 nM	26 nM	21 nM	COc1ccc(S(=O)(=O)C(C)C)cc1Nc1ccc2c(n1)N(C1CCN(CC(F)(F)F)CC1)[C@H](C)C(=O)N2C [Example 28, (3R)-6-{[5-(Isopropylsulphonyl)-2-methoxyphenyl]amino}-1,3-dimethyl-4-[1-(2,2,2-trifluoroethyl)piperidin-4-yl]-3,4-dihydropyrido[2,3-b]pyrazin-2(1H)-one]
62 nM	15 nM	59 nM	COc1ccc(S(=O)(=O)C(C)C)cc1Nc1ccc2c(n1)N(C1CCN(C)CC1)[C@H](C)C(=O)N2C [Example 13, (3R)-6-{[5-(Isopropylsulphonyl)-2-methoxyphenyl]amino}-1,3-dimethyl-4-(1-methylpiperidin-4-yl)-3,4-dihydropyrido[2,3-b]pyrazin-2(1H)-one]
58 nM	16 nM	52 nM	COc1ccc(S(=O)(=O)C(F)(F)F)cc1Nc1ccc2c(n1)N(C1CCN(C)CC1)[C@H](C)C(=O)N2C [Example 21, (3R)-6-({2-Methoxy-5-[(trifluoromethyl)sulphonyl]phenyl}amino)-1,3-dimethyl-4-(1-methylpiperidin-4-yl)-3,4-dihydropyrido[2,3-b]pyrazin-2(1H)-one]
54 nM	99 nM	140 nM	COc1ccc(S(=O)(=O)C2CCOCC2)cc1Nc1ccc2c(n1)N(C1CCN(C)CC1)[C@H](C)C(=O)N2C [Example 22, (3R)-6-{[2-Methoxy-5-(tetrahydro-2H-pyran-4-ylsulphonyl)phenyl]amino}-1,3-dimethyl-4-(1-methylpiperidin-4-yl)-3,4-dihydropyrido[2,3-b]pyrazin-2(1H)-one]
44 nM	32 nM	32 nM	COc1ccc(S(=O)(=O)C2CCOCC2)cc1Nc1ccc2c(n1)N(C1CCOCC1)[C@H](C)C(=O)N2C [Example 34, (3R)-6-{[2-Methoxy-5-(tetrahydro-2H-pyran-4-ylsulphonyl)phenyl]amino}-1,3-dimethyl-4-(tetrahydro-2H-pyran-4-yl)-3,4-dihydropyrido[2,3-b]pyrazin-2(1H)-one]
40 nM	89 nM	87 nM	C[C@@H]1C(=O)N(C)c2ccc(Nc3cccc(S(=O)(=O)C4CC4)c3)nc2N1C1CCOCC1 [Example 6, (3R)-6-{[3-(Cyclopropylsulphonyl)phenyl]amino}-1,3-dimethyl-4-(tetrahydro-2H-pyran-4-yl)-3,4-dihydropyrido[2,3-b]pyrazin-2(1H)-one]
